What all share (format): in vivo
The test system of assay [1] is glial fibrillary acidic protein (GFAP). Put plainly: Ex.3 neuroprotective HIE rat model: blood serum GFAP ELISA. The note with it: 50 mg/kg E4 ip PND4-7 before HI; PND14. As to the method:
(§1) Blood was withdrawn, centrifuged and the serum samples were stored at −80° C.
(§2) ELISAs for detecting the brain damage markers S100B protein (Catalog# CSB-E08066r, Cusabio Biotech Co., LTD, China), and glial fibrillary acidic protein (GFAP) (Catalog# E90068Ra, Uscn Life sciences Inc., China) in blood serum samples were performed according to the manufacturers' recommendations.
(§3) Newborn rat pups were assigned to one of the following 6 groups from postnatal day 4: Sham group (n=24), Vehicle group (n=14), E4 1 mg/kg/per day group (n=11), E4 5 mg/kg/per day group (n=14), E4 10 mg/kg/per day group (n=14), or E4 50 mg/kg/per day group (n=19). From postnatal day 4, rat pups were intraperitoneally injected either vehicle (Vehicle group) or E4 (1, 5, 10, or 50 mg/kg/per day in accordance to the E4 group assignment) or neither vehicle nor E4 (Sham group). At day 7, 30 minutes after last injection, animals were anesthetized with isoflurane (induction, 3.0%; maintenance, 1.5%), and the rat pups from Vehicle and E4 groups passed through surgery encompassing left common carotid artery double ligation and cut. After the procedure, the pups were returned to their dams and were allowed to recover for 1 hour. The pups were then placed in the humidified hypoxic in vivo cabinet (CoyLab, Grass Lake, Mich., USA). […]
Background: An ELISA detects its analyte on a solid surface through an enzyme-linked reagent.

For assay [2], the system named is intact cells in hippocampus and cortex. The assay can be described thus: Ex.2 neonatal HIE rat model, pre-treatment: hematoxylin-eosin staining and intact cell counting. As for the experimental part: Paraformaldehyde-fixed paraffin embedded samples of the removed brains were coronally sectioned at the same level of the hippocampus region in accordance to the Paxinos rat brain atlas (Paxinos and Watson 2007. In: The rat brain in stereotaxic coordinates, 6th edition). Thickness of sections was 5 μm. Hematoxylin-eosin staining was performed. Briefly, sections were deparaffinized in xylene and rehydrated in graded ethanol concentrations before staining. Slides were stained with hematoxylin, rinsed for a few seconds in water, then placed in 1% eosin and washed, dehydrated, and coverslipped.
Intact cell counting was performed on hematoxylin-eosin-stained sections of the rat pups brains at magnification 400× in 3 fields of the respective brain area. Countings were performed in cortex and hippocampus (regions: dentate gyrus (DG), subgranular zone (SGZ), cornu ammonis (CA1, CA2/CA3)). The sections were analyzed with the aid of a microscope (Olympus BX51, Olympus, Tokyo, Japan), an image scanner (DotSlide Digital Virtual Microscopy, Olympus, Germany) and ImageJ software (NIH, US).
Intact cells are uninjured. Injured cells are characterized by a pale eosinophilic staining along with non-uniform nuclear densities-shrunken, condensed, or pale and enlarged.
After delivery, newborn rat pups were assigned to one of the following 4 groups: Sham group, Vehicle group, E4 5 mg/kg/per day group and E4 50 mg/kg/per day group. From day 4 to day 7 inclusive, rat pups were injected intraperitoneally either vehicle (Vehicle group) or E4 (5 mg/kg or 50 mg/kg in accordance to the group assignment) or not injected at all (Sham group). At day 7, 30 minutes after last injection, animals from Vehicle and E4 (5 mg/kg or 50 mg/kg) groups passed through surgery encompassing left common carotid artery double ligation and cut, followed by hypoxia produced by the inhalation of 11%-8% of oxygen balanced by nitrogen at decreased concentration for 20 minutes, followed by inhalation of 8% oxygen and 92% nitrogen at constant concentration for 35 minutes. The Sham group went through similar procedures without left common carotid artery ligation and hypoxia. All the manipulations were performed at 37° C. Rat pups recovered with their dams until being sacrificed at postnatal day 14.

In another assay the test system is S100B. Put plainly: Ex.3 neuroprotective HIE rat model: blood serum S100B ELISA. The note with it: PND14. As to the method: as §1, §2, §3

The record followed here is patent US9808470B2, “Estrogenic components for use in the treatment of neurological disorders” (UNIVERSITE DE LIEGE, priority 2012, dated 2017).

Consider `C[C@]12CC[C@@H]3c4ccc(O)cc4CC[C@H]3[C@@H]1[C@@H](O)[C@@H](O)[C@@H]2O` [E4, 1,3,5(10)-estratrien-3,15α,16α,17β-tetrol], for which the “concentration of GFAP in blood serum” value in assay [1] stood at 300.388 ± 31.232 pg/mL. In addition, the “number of intact cells per visual field” value in assay [2] (E4 5 mg/kg ip day 4-7 before HI, DG, vs Vehicle) is recorded as “significantly higher”; in assay [2] (E4 5 mg/kg ip day 4-7 before HI, SGZ, vs Sham and Vehicle), “significantly higher”; in assay [2] (E4 50 mg/kg ip day 4-7 before HI, CA2/CA3, vs Vehicle and E4 5 mg/kg), “significantly higher number of intact cells”; in assay [2] (E4 50 mg/kg ip day 4-7 before HI, cortex, vs Vehicle) it was “significantly higher number of intact cells”; in assay [2] (E4 5 and 50 mg/kg ip day 4-7 before HI, CA1, among study groups) it was “non-significant difference”. Also, the “Hematoxylin-Eosin staining of hippocampus region” value in assay [2] (E4 5 and 50 mg/kg ip day 4-7 before HI, day 14) is “neuroprotective effect”. Moreover, the “concentration of S100B in blood serum” value is “significantly higher” in the assay on S100B (10 mg/kg E4 ip PND4-7 before HI, vs sham, 5 mg/kg E4 and 50 mg/kg E4); 361 ± 32.914 pg/mL in the assay with S100B (50 mg/kg E4 ip PND4-7 before HI).
